Columns and labels:
[1] = tested on: S. griseolus ATCC11796; experiment: Metabolism of 10015 analogs to 10014 (Example 17); type: in vitro ADME, Streptomyces griseolus
Description: Cultures of S. griseolus ATCC11796 were cultivated in sporulation-broth (50ml) at 30° C. with shaking for 17 hours. Each culture was then resuspended in 25 ml fresh sporulation broth, 3.0 mg sulfonylurea was added, and the culture reincubated for 4 days. Aliquots of the medium were then analyzed by HPLC. Formation of 10014 was measured based on similarity of retention time and UV spectrum of the test metabolite to that formed by metabolism of 10015.

[2] = tested on: S. griseus PH3832; experiment: Metabolism of 10001 by strains transformed with pPAT108 (Example 14); type: in vitro ADME, Streptomyces griseus; settings: substrate 10001 120 ug/ml
Description: S. griseolus PH2003, S. griseus PH4001, S. ambofaciens PH4002, and S. lividans JI1326 were transformed with the plasmid pPAT108. The transformed S. griseolus strain, PH3826, was cultured for 24 hours in 150 mls of sporulation broth with 5 ug/ml thiostrepton. The transformed S. griseus strain, PH3832, and the transformed S. ambofaciens strain, PH3834, were cultured for 24 hours in 150 mls of trypticase soy broth with 5 ug/ml thiostrepton. The transformed S. lividans strain, PH3822, was similarly cultured in 150 mls of YEME broth with 5 ug/ml thiostrepton. Three hours before harvesting the cells, 50 mls of fresh medium of the same type with 5 ug/ml thiostrepton was added to each culture. The cells from each of the cultures were harvested by centrifugation, washed twice with 50 mMMOPS, pH7.2 and resuspended in five cell volumes of MOPS containing 0.2% glucose and 120 ug/ml of the sulfonylurea 10001. The cell suspensions were incubated at 30° C. with shaking and aliquots were removed at 0.5, 1, 2 and 4 hours. The supernatant of each aliquot was analyzed by HPLC and the concentration of the sulfonylurea compound 10001 and its metabolites 10002 and 10003 were determined.

[3] = tested on: S. griseus PH4001; experiment: Metabolism of 10001 by untransformed strain (Example 14); type: in vitro ADME, Streptomyces griseus; settings: substrate 10001 120 ug/ml
[4] = tested on: S. griseolus PH2003 pCS325; experiment: Percent conversion of herbicides by cultures (Example 16); type: in vitro ADME, Streptomyces griseolus; settings: 3.0 mg herbicide in 25 ml broth; 24 hours
Description: (§1) Separate cultures (50 ml) inoculated with S. lividans C37, S. lividans transformed with pCAO200SU1-FeS-B#9, S. griseolus ATCC11796, S. griseolus PH2003 transformed with pIJ425, or S. ariseolus PH2003 transformed with pCS325 were cultured in sporulation broth for 18 hours at 30° C. with shaking. Each culture was then resuspended in 25 ml fresh sporulation broth and 3.0 mg herbicide added. In the case of cultures of S. griseolus ATCC11796, a second culture containing herbicide and 3.0 mg 10001 was also prepared. Each culture was reincubated for 24 hours, then an aliquot of the medium was withdrawn and analyzed by HPLC. The percent conversion of herbicide was determined.

[5] = tested on: S. griseolus ATCC 11796, 10001 added; experiment: as above; type: in vitro ADME, Streptomyces griseolus; settings: 3.0 mg herbicide and 3.0 mg 10001 in 25 ml broth; 24 hours
Description: as §1

[6] = tested on: S. griseolus PH2003 pIJ425; experiment: as above; type: in vitro ADME, Streptomyces griseolus; settings: 3.0 mg herbicide in 25 ml broth; 24 hours
Description: as §1

[7] = tested on: leaves of transformed tobacco; experiment: Metabolism of 10001 in excised tobacco leaves (Example 20); type: in vitro ADME, Nicotiana tabacum; settings: plants transformed with pSSU-SU111 and pCab-SU131, 21 hours
Description: Plants were grown from tobacco seed produced by self-pollinated transformed plants in Metro-Mix® 350 under 16 hour light (light intensity of 400 μEinsteins per second per square meter at pot level, 22° C. and 80% relative humidity) followed by 8 hours of dark (18° C. and 70 to 80% relative humidity) and watered three times daily with half strength Hoagland's solution. The presence of the cytochrome P450 protein in individual plants was confirmed by Western blot analysis before testing for sulfonylurea metabolism.
During growth, the tobacco plants produced leaves attached to the main stalk, none of which were of the same age or size. […]
Individual leaves were extracted with 30 ml acetone/water (80%/20% by volume) for 1 minute in a Sorvall® Omni-Mixer. […] 10015 and its metabolites were detected at 254 nm while ^14 C-10001 and its metabolites were detected with a Radiomatic Flo-One® detector. A diode array detector was used in separate experiments to obtain the absorbance spectra of the 10015 metabolite and an 10014 standard in the HPLC analysis of several extracts (HPLC method is described in Romesser et al., Biochem. Biophys. Res. Comm., 140:650-659 (1986)). Comparison of the metabolite absorbance spectrum with that of the 10014 confirmed the metabolite's identity. […]

COc1cc(OC)nc(NC(=O)NS(=O)(=O)c2cccc3c2S(=O)(=O)N(C(C)C)C3)n1 [compound 10015]
metabolism by P450SU1 to phytotoxic 10014 [1]: metabolized

COc1cc(Cl)nc(NC(=O)NS(=O)(=O)c2ccccc2C(=O)O)n1 [compound 10003, N-[(4-chloro-6-methoxy-pyrimidin-2-yol)aminocarbonyl]-2-carboxybenzenesulfonamide]
concentration in supernatant ([2]; 0.5 h): 9 µM | concentration in supernatant ([2]; 1.0 h): 26 µM | concentration in supernatant ([2]; 2.0 h): 46 µM | concentration in supernatant ([2]; 4.0 h): 80 µM | concentration in supernatant ([3]; 1.0 h): 1 µM | concentration in supernatant ([3]; 4.0 h): 4 µM

CCOC(=O)c1ccccc1S(=O)(=O)NC(=O)Nc1nc(Cl)cc(OC)n1 [compound 10001, N-[(4-chloro-6-methoxy-pyrimidin-2-yl)aminocarbonyl]-2-ethoxycarbonylbenzenesulfonamide]
Percent Conversion [4]: 100% | Percent Conversion [5]: 100% | Percent Conversion [6]: 100% | concentration in supernatant ([2]; 0.5 h): 281 µM | concentration in supernatant ([2]; 1.0 h): 238 µM | concentration in supernatant ([2]; 2.0 h): 177 µM | concentration in supernatant ([2]; 4.0 h): 77 µM | extent of metabolism versus leaf tissue of pAGS112 plants [7]: metabolized to a significantly greater extent | concentration in supernatant ([3]; 1.0 h): 370 µM | concentration in supernatant ([3]; 4.0 h): 377 µM

CCOC(=O)c1ccccc1S(=O)(=O)NC(=O)Nc1nc(O)cc(Cl)n1 [compound 10002, N-[(4-chloro-6-hydroxy-pyrimidin-2-yl)aminocarbonyl]-2-ethoxycarbonylbenzenesulfonamide]
metabolite production versus leaf tissue of pAGS112 plants ([7]; substrate 10001): more 10002 was produced
